Results on seven compounds are retold here after patent publication US10751339B2, “Substituted aminopyrimidine compounds and methods of use” (SUNSHINE LAKE PHARMA CO., LTD., priority 2018, dated 2020).

The test system of data set [1] is model of systemic lupus erythematosis. To be noted: in vivo; cited from earlier work.
In data set [2] the test system is mouse model of rheumatoid arthritis. To be noted: in vivo; cited from earlier work.
Data set [3] deals with indolent B cell malignancies. To be noted: Phase I, subset of patients with indolent B cell malignancies; cited from earlier work.
The target in a further data set is PI3K (p120γ) (h) (Homo sapiens (Human), UniProt P48736). In words: PI3K (p120γ) (h) non-radioactive HTRF kinase assay. The class given is biochemical. The protocol:
(§1) PI3K (p120γ) (h) is incubated in assay buffer containing 10 μM phosphatidylinositol-4, 5-bisphosphate and MgATP (concentration as required). The reaction is initiated by the addition of the MgATP mix. After incubation for 30 minutes at room temperature, the reaction is stopped by the addition of stop solution containing EDTA and biotinylated phosphatidylinositol-3,4,5-trisphosphate. Finally, detection buffer is added, which contains europium-labelled anti-GST monoclonal antibody, GST-tagged GRP1 PH domain and streptavidin-allophycocyanin. The plate is then read in timeresolved fluorescence mode and the homogenous time-resolved fluorescence (HTRF) signal is determined according to the formula HTRF=10000×(Em665 nm/Em620 nm).
(§2) The kinase assays described herein were performed at Millipore UK Ltd, Dundee Technology Park, Dundee DD2 1SW, UK.
In general terms: In TR-FRET formats the signal depends on donor and acceptor labels being close together.

A short description of data set [4]: Compound stability in human liver microsomes. It is filed as in vitro ADME. As to conditions: pH 7.4; for CLint scaled at 5 μM: liver microsomes, in vivo CLint extrapolated from human liver microsome incubation; for half-life at 5 μM: human liver microsomes 0.5 mg protein/mL, compound 5 μM, NADPH, 37° C., read-out: Human T1/2. The method, boiled down: (§3)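 Compounds (5 μM, 0.05% DMSO) incubated in duplicate with liver microsomes (0.5 mg protein/mL) and 1.0 mM NADPH in 100 mM phosphate buffer pH 7.4 at 37 °C, sampled 0–60 min. Remaining compound measured by LC/MS/MS, expressed as percent of zero-time control; denatured-microsome and dextromethorphan controls included.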

In the next data set the target is PI3K (p110β/p85α) (h) (Homo sapiens (Human), UniProt P42338). In words: PI3K (p110β/p85α) (h) non-radioactive HTRF kinase assay. It is filed as biochemical. The protocol:
as §1, with “(p110β/p85α)” for “(p120γ)”, “phosphatidylinositol-4,5-bisphosphate” for “phosphatidylinositol-4, 5-bisphosphate”
as §2

Another data set addresses PI3K (p110δ/p85α) (h) (Homo sapiens (Human), UniProt O00329). Description: PI3K (p110δ/p85α) (h) non-radioactive HTRF kinase assay. The class given is biochemical. The protocol: as §1, with “(p110δ/p85α)” for “(p120γ)”
as §2

Data set [5] is described as follows: Compound stability in rat liver microsomes. It is filed as in vitro ADME. As to conditions: pH 7.4; for CLint scaled at 5 μM: liver microsomes, in vivo CLint extrapolated from rat liver microsome incubation; for half-life at 5 μM: rat liver microsomes 0.5 mg protein/mL, compound 5 μM, NADPH, 37° C., read-out: Rat T1/2. The method, boiled down: as §3
The next data set addresses PI3K (p110α/p85α) (h) (Homo sapiens (Human), UniProt P42336). Description: PI3K (p110α/p85α) (h) non-radioactive HTRF kinase assay. It is filed as biochemical. Here is the method: as §1, with “(p110α/p85α)” for “(p120γ)”, “phosphatidylinositol 4,5-bisphosphate” for “phosphatidylinositol-4, 5-bisphosphate”, “ATP solution.” for “MgATP mix.”, “streptavidin allophycocyanin.” for “streptavidin-allophycocyanin.”
as §2

The test system of a further data set is PI3K-γ (RAW264.7). Description: p-AKT HTRF assay, PI3K-γ in RAW 264.7 cells stimulated with C5a. To be noted: Mus musculus; RAW264.7 cells, C5a stimulation. The class given is cell-based, murine. Here is the method:
(§4) Cells were incubated at 37° C. in a 5% CO2 atmosphere overnight. […] Medium was then aspirated and 50 μL/well of lysis buffer was added. Plates were shaked for 45 minutes at room temperature and then 16 ul/well of lysate was transferred to 384-well plate. 4 ul/well of premixed antibody was added to the wells. The plate was centrifuged at 1000 rpm at RT for 1 minute and then incubated for 4 hours at 22° C., and Phospho-AKT (ser473) Kit was used for detection.

In the next data set the test system is PI3K-β (786-O). In words: p-AKT HTRF assay, PI3K-β in 786-O cells. It is filed as cell-based. As to conditions: Homo sapiens, 786-0. Here is the method: as §4
The subject of a further data set is PI3K-α (SKOV3). In words: p-AKT HTRF assay, PI3K-α in SKOV3 cells. As to conditions: Homo sapiens, SK-OV-3. The class given is cell-based. The protocol:
as §4

The subject of the next data set is PI3K-δ (RAJI). Description: p-AKT HTRF assay, PI3K-δ in RAJI cells stimulated with anti-IgM. It is filed as cell-based. To be noted: anti-human IgM stimulation. Here is the method: as §4
A further data set has as its target hERG channels (Homo sapiens (Human), UniProt Q12809). Description: hERG assay, automated QPatch procedure. It is filed as cell-based. The source says: Only stable cells with recording parameters above threshold were allowed to enter the drug application procedure.

PI3K (p120γ) (h), sequence (P48736 whole entry, the tested form may be a part): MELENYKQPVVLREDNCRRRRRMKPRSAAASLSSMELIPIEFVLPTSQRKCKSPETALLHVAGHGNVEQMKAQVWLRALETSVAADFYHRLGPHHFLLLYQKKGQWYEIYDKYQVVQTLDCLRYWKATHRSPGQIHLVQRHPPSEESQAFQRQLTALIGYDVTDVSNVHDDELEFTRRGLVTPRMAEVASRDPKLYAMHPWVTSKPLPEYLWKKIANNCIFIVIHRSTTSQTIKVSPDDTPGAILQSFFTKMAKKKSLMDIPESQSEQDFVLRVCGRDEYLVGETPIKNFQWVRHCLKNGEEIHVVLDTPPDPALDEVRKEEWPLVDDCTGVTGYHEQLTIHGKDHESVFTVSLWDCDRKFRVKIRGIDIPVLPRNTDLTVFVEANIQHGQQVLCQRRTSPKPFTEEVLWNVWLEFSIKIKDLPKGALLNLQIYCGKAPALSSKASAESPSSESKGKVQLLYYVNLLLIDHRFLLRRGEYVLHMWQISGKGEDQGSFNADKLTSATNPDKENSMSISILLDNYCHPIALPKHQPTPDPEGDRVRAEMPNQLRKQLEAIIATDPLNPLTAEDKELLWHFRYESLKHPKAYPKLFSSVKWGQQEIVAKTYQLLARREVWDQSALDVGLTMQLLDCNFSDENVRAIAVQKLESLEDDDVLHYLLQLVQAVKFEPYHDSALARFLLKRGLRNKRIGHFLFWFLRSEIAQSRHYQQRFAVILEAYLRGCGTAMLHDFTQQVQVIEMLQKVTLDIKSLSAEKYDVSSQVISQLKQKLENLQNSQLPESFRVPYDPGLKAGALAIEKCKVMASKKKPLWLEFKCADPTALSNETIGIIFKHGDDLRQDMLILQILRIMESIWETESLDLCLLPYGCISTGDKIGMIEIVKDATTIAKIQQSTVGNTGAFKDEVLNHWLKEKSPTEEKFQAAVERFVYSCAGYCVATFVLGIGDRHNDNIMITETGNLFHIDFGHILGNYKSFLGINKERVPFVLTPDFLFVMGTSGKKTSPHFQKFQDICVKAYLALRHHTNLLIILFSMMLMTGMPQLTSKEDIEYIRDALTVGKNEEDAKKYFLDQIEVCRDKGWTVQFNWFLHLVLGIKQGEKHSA
PI3K (p110β/p85α) (h), sequence (P42338 whole entry): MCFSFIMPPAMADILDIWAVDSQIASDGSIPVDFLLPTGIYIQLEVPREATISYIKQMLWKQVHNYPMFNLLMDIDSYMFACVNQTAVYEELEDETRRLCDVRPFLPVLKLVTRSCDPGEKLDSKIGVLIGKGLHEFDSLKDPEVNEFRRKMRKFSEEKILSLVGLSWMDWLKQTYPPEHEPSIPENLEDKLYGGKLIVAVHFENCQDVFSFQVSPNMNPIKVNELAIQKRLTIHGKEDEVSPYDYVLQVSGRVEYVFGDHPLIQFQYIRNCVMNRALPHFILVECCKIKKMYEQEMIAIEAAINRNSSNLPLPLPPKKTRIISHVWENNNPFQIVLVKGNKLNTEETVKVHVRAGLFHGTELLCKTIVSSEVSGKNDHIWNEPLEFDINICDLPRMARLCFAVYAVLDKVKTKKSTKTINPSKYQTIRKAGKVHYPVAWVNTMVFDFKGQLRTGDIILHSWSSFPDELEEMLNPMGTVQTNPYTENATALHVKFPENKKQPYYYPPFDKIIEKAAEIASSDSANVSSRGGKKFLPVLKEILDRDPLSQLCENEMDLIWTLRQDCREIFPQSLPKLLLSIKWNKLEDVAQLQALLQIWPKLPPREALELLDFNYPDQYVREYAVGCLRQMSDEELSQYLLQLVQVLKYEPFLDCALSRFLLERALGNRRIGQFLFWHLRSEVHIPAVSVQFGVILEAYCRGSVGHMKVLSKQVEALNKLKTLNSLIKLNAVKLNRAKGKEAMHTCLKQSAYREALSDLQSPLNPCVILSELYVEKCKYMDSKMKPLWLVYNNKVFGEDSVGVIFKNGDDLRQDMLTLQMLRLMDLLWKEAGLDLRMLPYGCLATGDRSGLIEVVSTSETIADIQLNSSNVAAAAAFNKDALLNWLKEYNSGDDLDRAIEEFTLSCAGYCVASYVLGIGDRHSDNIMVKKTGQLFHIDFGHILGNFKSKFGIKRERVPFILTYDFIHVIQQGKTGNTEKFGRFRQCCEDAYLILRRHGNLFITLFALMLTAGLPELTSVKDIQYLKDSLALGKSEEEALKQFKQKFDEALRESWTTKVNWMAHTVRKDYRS
PI3K (p110β/p85α) (h), sequence (P27986 whole entry partner): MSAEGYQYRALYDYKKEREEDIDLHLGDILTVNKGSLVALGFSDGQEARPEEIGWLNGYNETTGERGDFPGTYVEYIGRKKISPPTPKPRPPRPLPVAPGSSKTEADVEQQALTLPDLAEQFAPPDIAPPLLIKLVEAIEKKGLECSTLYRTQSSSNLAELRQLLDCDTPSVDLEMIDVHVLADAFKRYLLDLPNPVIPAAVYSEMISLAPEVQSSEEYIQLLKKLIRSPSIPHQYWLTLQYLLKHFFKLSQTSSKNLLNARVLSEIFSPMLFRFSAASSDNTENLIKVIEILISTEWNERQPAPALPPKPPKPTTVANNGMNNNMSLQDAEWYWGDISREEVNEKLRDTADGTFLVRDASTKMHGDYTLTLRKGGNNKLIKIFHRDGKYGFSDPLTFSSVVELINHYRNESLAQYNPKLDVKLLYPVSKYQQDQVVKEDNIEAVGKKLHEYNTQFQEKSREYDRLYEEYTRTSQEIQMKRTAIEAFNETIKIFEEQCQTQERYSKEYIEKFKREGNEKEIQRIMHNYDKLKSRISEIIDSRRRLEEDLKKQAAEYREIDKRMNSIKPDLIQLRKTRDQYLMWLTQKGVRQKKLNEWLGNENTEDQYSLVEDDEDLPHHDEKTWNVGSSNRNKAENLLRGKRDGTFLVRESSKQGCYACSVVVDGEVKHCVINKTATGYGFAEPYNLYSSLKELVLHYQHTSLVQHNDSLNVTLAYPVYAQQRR
PI3K (p110δ/p85α) (h), sequence (O00329 whole entry): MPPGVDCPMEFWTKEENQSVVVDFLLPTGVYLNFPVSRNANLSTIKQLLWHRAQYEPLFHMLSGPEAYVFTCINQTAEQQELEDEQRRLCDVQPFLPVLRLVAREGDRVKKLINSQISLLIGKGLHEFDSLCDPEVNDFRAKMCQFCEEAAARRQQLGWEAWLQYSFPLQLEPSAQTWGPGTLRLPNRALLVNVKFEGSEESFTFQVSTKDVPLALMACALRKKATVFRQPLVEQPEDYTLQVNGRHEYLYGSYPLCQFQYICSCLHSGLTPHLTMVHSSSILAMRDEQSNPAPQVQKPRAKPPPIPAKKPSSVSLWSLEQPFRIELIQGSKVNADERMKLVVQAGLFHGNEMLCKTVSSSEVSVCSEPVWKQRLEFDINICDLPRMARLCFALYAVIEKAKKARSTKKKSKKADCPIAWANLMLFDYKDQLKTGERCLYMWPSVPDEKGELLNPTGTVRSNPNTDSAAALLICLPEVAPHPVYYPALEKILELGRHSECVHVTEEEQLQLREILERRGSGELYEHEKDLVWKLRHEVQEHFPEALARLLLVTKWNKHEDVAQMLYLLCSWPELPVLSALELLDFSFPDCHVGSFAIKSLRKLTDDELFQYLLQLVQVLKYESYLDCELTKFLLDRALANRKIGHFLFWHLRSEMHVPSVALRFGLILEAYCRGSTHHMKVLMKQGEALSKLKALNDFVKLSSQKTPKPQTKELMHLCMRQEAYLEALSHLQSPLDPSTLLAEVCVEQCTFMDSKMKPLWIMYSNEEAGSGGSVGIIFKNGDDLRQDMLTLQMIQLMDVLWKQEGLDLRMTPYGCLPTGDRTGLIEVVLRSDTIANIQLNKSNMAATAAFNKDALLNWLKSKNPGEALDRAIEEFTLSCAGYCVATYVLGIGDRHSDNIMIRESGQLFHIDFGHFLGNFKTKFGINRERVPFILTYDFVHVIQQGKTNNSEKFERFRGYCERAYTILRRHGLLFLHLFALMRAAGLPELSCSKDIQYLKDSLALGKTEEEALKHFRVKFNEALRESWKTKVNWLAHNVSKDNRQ
PI3K (p110δ/p85α) (h), sequence (P27986 whole entry partner): as the sequence (P27986 whole entry partner) above
PI3K (p110α/p85α) (h), sequence (P42336 whole entry): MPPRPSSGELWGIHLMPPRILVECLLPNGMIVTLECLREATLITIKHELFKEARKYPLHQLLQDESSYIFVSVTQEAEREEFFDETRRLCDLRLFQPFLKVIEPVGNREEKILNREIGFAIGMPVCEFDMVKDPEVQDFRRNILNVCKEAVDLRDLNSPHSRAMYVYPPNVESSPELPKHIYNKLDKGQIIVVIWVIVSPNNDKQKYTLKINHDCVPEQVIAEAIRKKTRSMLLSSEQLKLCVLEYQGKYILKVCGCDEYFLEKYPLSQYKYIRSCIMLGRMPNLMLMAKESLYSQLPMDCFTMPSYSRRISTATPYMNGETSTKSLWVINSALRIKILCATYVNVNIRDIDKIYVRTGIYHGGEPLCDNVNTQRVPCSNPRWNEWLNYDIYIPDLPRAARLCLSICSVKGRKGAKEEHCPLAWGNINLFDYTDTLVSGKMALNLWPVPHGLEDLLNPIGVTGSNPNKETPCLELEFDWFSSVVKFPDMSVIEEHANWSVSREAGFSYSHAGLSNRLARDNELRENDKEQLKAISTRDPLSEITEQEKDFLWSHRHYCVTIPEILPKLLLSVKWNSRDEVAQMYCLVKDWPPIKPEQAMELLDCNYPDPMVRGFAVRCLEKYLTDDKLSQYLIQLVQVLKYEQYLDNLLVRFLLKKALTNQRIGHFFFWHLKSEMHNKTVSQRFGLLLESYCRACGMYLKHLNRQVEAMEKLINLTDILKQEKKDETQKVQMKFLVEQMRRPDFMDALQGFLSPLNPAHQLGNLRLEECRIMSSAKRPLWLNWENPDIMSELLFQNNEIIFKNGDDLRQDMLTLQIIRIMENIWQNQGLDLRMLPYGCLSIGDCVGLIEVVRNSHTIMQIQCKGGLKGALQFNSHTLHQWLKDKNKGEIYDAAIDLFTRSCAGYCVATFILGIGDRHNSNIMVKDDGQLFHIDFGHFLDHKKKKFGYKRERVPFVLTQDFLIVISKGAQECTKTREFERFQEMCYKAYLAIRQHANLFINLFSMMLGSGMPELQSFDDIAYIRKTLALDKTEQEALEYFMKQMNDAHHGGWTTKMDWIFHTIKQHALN
PI3K (p110α/p85α) (h), sequence (P27986 whole entry partner): as the sequence (P27986 whole entry partner) above

`O=C1NC(=O)/C(=C\c2ccc3nccnc3c2)S1` [AS 605240]: the “effect on onset of disease in a model of systemic lupus erythematosis” value in data set [1] is listed as “delay onset of disease”. In data set [2], the “efficacy in a mouse model of rheumatoid arthritis” value is “efficacious”.
Regarding `CC[C@H](Nc1ncnc2[nH]cnc12)c1nc2cccc(F)c2c(=O)n1-c1ccccc1` [CAL-101, idelalisib], the clinical response result in [3] was “dramatic and durable responses”.
By IC50 is commonly meant the concentration needed to halve the response being measured. A word on the CLint scaled: it is the capacity of the preparation to metabolise the compound, expressed as a volume cleared per time. Consider `CC#Cc1cccc2nc([C@H](CC)Nc3ncnc(N)c3-c3nc(C)no3)n(-c3ccccc3)c(=O)c12` [Example 14, (S)-2-(1-((6-amino-5-(3-methyl-1,2,4-oxadiazol-5-yl)pyrimidin-4-yl)amino)propyl)-3-phenyl-5-(prop-1-yn-1-yl)quinazolin-4(3H)-one], for which the IC50 at PI3K (p120γ) (h) worked out at 0.015 µM; at PI3K (p110β/p85α) (h) it was 0.582 µM; at PI3K (p110δ/p85α) (h), 0.008 µM; at PI3K (p110α/p85α) (h) it was 1.89 µM. Moreover, the CLint scaled at 5 μM in data set [4] was 150 mL/min/kg; in data set [5], 213 mL/min/kg. Moreover, the half-life at 5 μM in data set [4] was 11.6 min; in data set [5] it was 11.7 min.
On to `CC#Cc1cccc2cc([C@H](C)Nc3ncnc(N)c3-c3nc(C)no3)n(-c3ccccc3)c(=O)c12` [Example 16, (S)-3-(1-((6-amino-5-(3-methyl-1,2,4-oxadiazol-5-yl)pyrimidin-4-yl)amino)ethyl)-2-phenyl-8-(prop-1-yn-1-yl)isoquinolin-1(2H)-one], for which the IC50 turned out to be 0.026 µM at PI3K (p120γ) (h); 0.0226 µM in the data set with PI3K-γ (RAW264.7); 0.0344 µM in the data set with PI3K-β (786-O); 0.305 µM in the data set with PI3K-α (SKOV3); 0.061 µM at PI3K (p110β/p85α) (h); 0.01 µM on PI3K (p110δ/p85α) (h). Further, the IC50 on PI3K (p110α/p85α) (h) is 0.121 µM; with PI3K-δ (RAJI), 0.00052 µM; on hERG channels it was > 30 µM.
In the case of `CC[C@H](Nc1ncnc(N)c1-c1nc(C)no1)c1nc2cccc(C#CCO)c2c(=O)n1C1CC1` [Example 29, (S)-2-(1-((6-amino-5-(3-methyl-1,2,4-oxadiazol-5-yl)pyrimidin-4-yl)amino)propyl)-3-cyclopropyl-5-(3-hydroxyprop-1-yn-1-yl)quinazolin-4(3H)-one], the IC50 is 0.077 µM on PI3K (p120γ) (h), 0.119 µM on PI3K (p110β/p85α) (h), 0.024 µM on PI3K (p110δ/p85α) (h) and > 3 µM on PI3K (p110α/p85α) (h). Besides, the CLint scaled at 5 μM was 72.2 mL/min/kg in data set [4] and 88.8 mL/min/kg in data set [5]. Besides, the values for the half-life at 5 μM in [4] and in [5] were 24.1 min and 28 min, respectively.
Turning to `CC[C@H](Nc1ncnc(N)c1-c1nc(C)no1)c1nc2cccc(C#CCO)c2c(=O)n1-c1ccccc1` [Example 36, (S)-2-(1-((6-amino-5-(3-methyl-1,2,4-oxadiazol-5-yl)pyrimidin-4-yl)amino)propyl)-5-(3-hydroxyprop-1-yn-1-yl)-3-phenylquinazolin-4(3H)-one], the IC50 on PI3K (p120γ) (h) was 0.03 µM; at PI3K (p110β/p85α) (h) it was 0.395 µM; on PI3K (p110δ/p85α) (h), 0.01 µM; on PI3K (p110α/p85α) (h), 2.66 µM. For the same compound, the CLint scaled at 5 μM is 98.3 mL/min/kg in data set [4] and 138 mL/min/kg in data set [5]. For the same compound, the half-life at 5 μM in data set [4] amounted to 17.7 min; in data set [5] it was 18 min.
`CC[C@H](Nc1ncnc(N)c1-c1nnc(C)o1)c1nc2cccc(C#CCO)c2c(=O)n1-c1ccccc1` [Example 37, (S)-2-(1-((6-amino-5-(5-methyl-1,3,4-oxadiazol-2-yl)pyrimidin-4-yl)amino)propyl)-5-(3-hydroxyprop-1-yn-1-yl)-3-phenylquinazolin-4(3H)-one]: the IC50 on PI3K (p120γ) (h) is 0.44 µM; at PI3K (p110β/p85α) (h), > 3 µM; on PI3K (p110δ/p85α) (h) it was 0.045 µM; on PI3K (p110α/p85α) (h), > 3 µM. The CLint scaled at 5 μM in data set [4] is 39.8 mL/min/kg; in [5], 113 mL/min/kg. Further, the half-life at 5 μM came out at 43.7 min in data set [4] and 22 min in [5].
